The values that follow come from patent publication US20050245563A1 (Millennium Pharmaceuticals, Inc., priority 2003, published 2005).

In the assay the target is T1, human Chk1 (GST-Chk1) (Homo sapiens, UniProt O14757).
T1 construct: made in house; host or cells: insect cells (baculovirus, Bac-to-Bac)
T1 sequence (O14757 1-476): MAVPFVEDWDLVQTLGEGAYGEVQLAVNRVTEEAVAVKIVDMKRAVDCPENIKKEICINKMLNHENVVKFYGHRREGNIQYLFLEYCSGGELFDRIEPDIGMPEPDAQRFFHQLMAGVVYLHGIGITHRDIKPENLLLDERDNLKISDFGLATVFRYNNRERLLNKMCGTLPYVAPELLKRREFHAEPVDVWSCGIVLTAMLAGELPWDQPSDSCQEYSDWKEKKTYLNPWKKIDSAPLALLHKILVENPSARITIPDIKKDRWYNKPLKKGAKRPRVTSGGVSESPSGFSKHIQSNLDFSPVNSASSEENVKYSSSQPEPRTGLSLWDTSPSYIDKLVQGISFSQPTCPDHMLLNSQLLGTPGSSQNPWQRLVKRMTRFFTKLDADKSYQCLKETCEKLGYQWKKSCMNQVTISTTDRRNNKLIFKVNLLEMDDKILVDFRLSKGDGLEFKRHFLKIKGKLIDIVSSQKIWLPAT
Description: Chk1 DELFIA kinase assay (2 nM GST-Chk1, 600 μM ATP). The format is biochemical. The settings on record: Biotin-GLYRSPSMPEN-amide substrate. The procedure:
Recombinant human Chk1 was expressed as a fusion protein with glutathione S-transferase at the amino-terminus (GST-Chk1) using standard baculovirus vectors and (Bac-to-Bac®) insect cell expression system purchased from GIBCO™ Invitrogen. Recombinant protein expressed in insect cells was purified using glutathione sepharose (Amersham Biotech) using standard procedures described by the manufacturer.
Chk1 DELFIA® Kinase Assay:
Assays (25 μL) utilized 2 nM GST-Chk1 containing 10 mM Tris, pH 7.5, 20% glycerol, 50 mM sodium chloride (NaCl), 0.01% Surfact-Amps® 20, 1 μM peptide stubstrate (Biotin-GLYRSPSMPEN-amide) (SEQ ID NO: 3), 01.% BSA, 2 mM DTT, 4% DMSO, 600 μM ATP, 10 MM MgCl2 and reacted for 50 minutes at room temperature. Reactions were terminated with 100 μL of Stop buffer containing 1% BSA, 10 mM Tris, pH 8.0, 150 mM NaCl, 100 mM EDTA. Stopped reactions (100 μL) were transferred to 96 well NeutrAvidin plates (Pierce) to capture the biotin-peptide substrate during a 30 minute room temperature incubation. Wells were washed and reacted with 100 μL PerkinElmer Wallac Assay Buffer containing 21.5 ng/ml anti-phospho-Ser216-Cdc25c rabbit polyclonal antibody from Cell Signaling Technology (Beverly, Mass.) and 292 ng/ml europium labeled anti-rabbit-IgG for 1 hour at room temperature. Wells were washed and europium released from the bound antibody by addition of Enhancement Solution (100 μL) (PerkinElmer Wallac) and detected using a Perkin Elmer Wallac Envison™ 2100 multilabel reader using standard manufacturer settings.

The IC50 is the point on the concentration scale where inhibition reaches its midpoint. Read a high IC50 as lower potency. On to `Cc1[nH]nc2c1c(=O)n(CCCN)c1ccc(C#Cc3ccncc3)cc21` [Example 279, 5-(3-Amino-propyl)-3-methyl-8-pyridin-4-ylethylynyl-2,5-dihydro-pyrazolo[4,3-c]quinolin-4-one], for which the half-maximal inhibitory concentration (IC50) is less than 1000 nM. The molecule `Cc1[nH]nc2c1c(=O)n(CCCNCc1ccc[nH]1)c1ccc(Cl)cc21` [Example 243, 8-Chloro-3-methyl-5-{3-[(1H-pyrrol-2-ylmethyl)-amino]-propyl}2,5-dihydro-pyrazolo[4,3-c]quinolin-4-one] had an IC50 of less than 1000 nM.

`Cc1[nH]nc2c1c(=O)n(CCCN)c1ccc(C#CCOc3ccccc3)cc21` [Example 280, 5-(3-Amino-propyl)-3-methyl-8-(3-phenoxy-prop-1-ynyl)-2,5-dihydro-pyrazolo[4,3-c]quinolin-4-one] returned an IC50 of less than 1000 nM. For `CNCCCn1c(=O)c2c(C)[nH]nc2c2cc(I)ccc21` [Example 234, 8-Iodo-3-methyl-5-(3-methylamino-propyl)-2,5-dihydro-pyrazolo[4,3-c]quinolin-4-one] the value was less than 1000 nM; for `NCCCn1c(=O)c2c(CCO)[nH]nc2c2cc(C#CCN3CCCC3)ccc21` [Example 328, 5-(3-Amino-propyl)-3-(2-hydroxy-ethyl)-8-(3-pyrrolidin-1-yl-prop-1-ynyl)-2,5-dihydro-pyrazolo [4,3-c]quinolin-4-one], less than 1000 nM. Under `Cc1[nH]nc2c1c(=O)n(CCCN)c1c([N+](=O)[O-])cc(Cl)cc21` [Compound 347, 5-(3-Amino-propyl)-8-chloro-3-methyl-6-nitro-2,5-dihydro-pyrazolo[4,3-c]quinolin-4-one] stands 1000 to 10000 nM. The molecule `Cc1[nH]nc2c1c(=O)n(CCCN)c1ccc(C(=O)NCCN(C)C)cc21` [Example 352, 5-(3-Amino-propyl)-3-methyl-4-oxo-4,5-dihydro-2H-pyrazolo[4,3-c]quinoline-8-carboxylic acid (2-dimethylamino-ethyl)-amide] yielded an IC50 of less than 1000 nM. Under `COC(=O)c1ccc2c3n[nH]c(C)c3c(=O)n(CCCN)c2c1` [Compound 334, 5-(3-Amino-propyl)-3-methyl-4-oxo-4,5-dihydro-2H-pyrazolo[4,3-c]quinoline-7-carboxylic acid methyl ester] stands 1000 to 10000 nM; under `Cc1[nH]nc2c1c(=O)n(C[C@H](C)CN)c1ccc(Cl)cc21` [Example 221, 5-(3-Amino-2R-methyl-propyl)-8-chloro-3-methyl-2,5-dihydro-pyrazolo[4,3-c]quinolin-4-one], less than 1000 nM. For the molecule `Cc1[nH]nc2c1c(=O)n(CCCN)c1ccc(C#CCO)cc21` [Example 272, 5-(3-Amino-propyl)-8-(3-hydroxy-prop-1-ynyl)-3-methyl-2,5-dihydro-pyrazolo[4,3-c]quinolin-4-one], the IC50 was less than 1000 nM. `Cc1[nH]nc2c1c(=O)n(CCCN)c1ccc(N3CCCC3)cc21` [Example 310, 5-(3-Amino-propyl)-3-methyl-8-pyrrolidin-1-yl-2,5-dihydro-pyrazolo[4,3-c]quinolin-4-one] returned an IC50 of less than 1000 nM. Under `Cc1[nH]nc2c1c(=O)n(C)c1c(CCCN)cc(Cl)cc21` [Compound 343, 6-(3-Amino-propyl)-8-chloro-3,5-dimethyl-2,5-dihydro-pyrazolo[4,3-c]quinolin-4-one] stands 1000 to 10000 nM. For the molecule `COCCc1[nH]nc2c1c(=O)n(CCCN)c1ccc(C)cc21` [Example 354, 5-(3-Amino-propyl)-3-(2-methoxy-ethyl)-8-methyl-2,5-dihydro-pyrazolo[4,3-c]quinolin-4-one], the IC50 is less than 1000 nM.

Turning to `CCc1ccc2c(c1)c1n[nH]c(C)c1c(=O)n2CCCN` [Example 294, 5-(3-Amino-propyl)-8-ethyl-3-methyl-2,5-dihydro-pyrazolo[4,3-c]quinolin4-one], the half-maximal inhibitory concentration (IC50) was less than 1000 nM. On to `C#Cc1ccc2c(c1)c1n[nH]c(CC)c1c(=O)n2CCCNC` [Example 304, 8-Ethynyl-3-ethyl-5-(3-methylamino-propyl)-2,5-dihydro-pyrazolo[4,3-c]quinolin-4-one], for which the IC50 was less than 1000 nM. `Cc1[nH]nc2c1c(=O)n(CCCN)c1ccc(-c3ccc(C#N)cc3)cc21` [Example 306, 4-[5-(3-Amino-propyl)-3-methyl-4-oxo-4,5-dihydro-2H-pyrazolo[4,3-c]quinolin-8-yl]-benzonitrile] displayed an IC50 of less than 1000 nM. For `CCCNCCCn1c(=O)c2c(C)[nH]nc2c2cc(Cl)ccc21` [Example 239, 8-Chloro-3-methyl-5-(3-propylamino-propyl)-2,5-dihydro-pyrazolo[4,3-c]quinolin-4-one] the value was less than 1000 nM; for `CC(C)c1[nH]nc2c1c(=O)n(CCCN)c1ccc(Cl)cc21` [Compound 325, 5-(3-Amino-propyl)-8-chloro-3-isopropyl-2,5-dihydro-pyrazolo[4,3-c]quinolin-4-one], less than 1000 nM. With `Cc1[nH]nc2c1c(=O)n(CC[C@H]1CCCCN1)c1ccc(Cl)cc21` [Compound 213, 8-Chloro-3-methyl-5-(2R-piperidin-2-yl-ethyl)-2,5-dihydro-pyrazolo[4,3-c]quinolin-4-one], the IC50 is less than 1000 nM.

With `COCC#Cc1ccc2c(c1)c1n[nH]c(C)c1c(=O)n2CCCN` [Example 281, 5-(3-Amino-propyl)-8-(3-methoxy-prop-1-ynyl)-3-methyl-2,5-dihydro-pyrazolo[4,3-c]quinolin-4-one], the IC50 is less than 1000 nM. Molecule `Cc1[nH]nc2c1c(=O)n(C[C@H]1CCCNC1)c1ccc(Cl)cc21` [Example 225, 8-Chloro-3-methyl-5S-piperidin-3-ylmethyl-2,5-dihydro-pyrazolo[4,3-c]quinolin-4-one] displayed an IC50 of less than 1000 nM. For `Cc1[nH]nc2c1c(=O)n(CCCN)c1ccc(C#CCN(C)C)cc21` [Example 284, 5-(3-Amino-propyl)-8-(3-dimethylamino-prop-1-ynyl]-3-methyl 2,5-dihydro-pyrazolo[4,3-c]quinolin-4-one] the value was less than 1000 nM. Under `Cc1[nH]nc2c1c(=O)n(CCCN)c1ccc(CCC(=O)O)cc21` [Compound 269, 3-[5-(3-Aminopropyl)-3-methyl-4-oxo-4,5-dihydro-2H-pyrazolo[4,3-c]quinolin-8-yl]-propionic acid] stands 1000 to 10000 nM. In turn, `Cc1[nH]nc2c1c(=O)n(CCCN)c1ccc(CCc3cccnc3)cc21` [Example 353, 5-(3-Amino-propyl)-3-methyl-8-(2-pyridin-3-yl-ethyl)-2,5-dihydro-pyrazolo[4,3-c]quinolin-4-one] came in with a half-maximal inhibitory concentration (IC50) of less than 1000 nM.

As for `Cc1[nH]nc2c1c(=O)n(CCCN)c1ccc(C#CCN3CCCCC3)cc21` [Example 286, 5-(3-Amino-propyl)-3-methyl-8-(3-piperidin-1-yl-prop-1-ynyl]-2,5-dihydro-pyrazolo[4,3-c]quinolin-4-one], the IC50 is less than 1000 nM.

Take `Cc1[nH]nc2c1c(=O)n(CCCN)c1ccc(C#Cc3ccccn3)cc21` [Example 278, 5-(3-Amino-propyl)-3-methyl-8-pyridin-2-ylethylynyl-2,5-dihydro-pyrazolo[4,3-c]quinolin-4-one]: the 50% inhibitory concentration (IC50) was less than 1000 nM.

Turning to `NCCCn1c(=O)c2c(CCOCc3ccccc3)[nH]nc2c2cc(Cl)ccc21` [Example 362, 5-(3-Amino-propyl)-3-(2-benzyloxy-ethyl)-8-chloro-2,5-dihydro-pyrazolo[4,3-c]quinolin-4-one], the concentration for half-maximal inhibition (IC50) is less than 1000 nM. Molecule `Cc1[nH]nc2c1c(=O)n(CCCN)c1ccc(OCCCN)cc21` [Example 255, 8-(3-Amino-propoxy)-5-(3-amino-propyl)-3-methyl-2,5-dihydro-pyrazolo[4,3-c]quinolin-4-one] had a half-maximal inhibitory concentration (IC50) of less than 1000 nM. For the molecule `CCc1[nH]nc2c1c(=O)n(CCCN)c1ccc(C#CCN3CCCC3)cc21` [Example 329, 5-(3-Amino-propyl)-3-ethyl-8-(3-pyrrolidin-1-yl-prop-1-ynyl)-2,5-dihydro-pyrazolo[4,3-c]quinolin-4-one], the IC50 was less than 1000 nM.

Regarding `COCCc1[nH]nc2c1c(=O)n(CCCN)c1ccc(Cl)cc21` [Compound 206, 5-(3-Amino-propyl)-8-chloro-3-(2-methoxyethyl)-2,5-dihydro-pyrazolo[4,3-c]quinolin-4-one], the IC50 is less than 1000 nM. For `COCCc1[nH]nc2c1c(=O)n(CCC(C)N)c1ccc(Cl)cc21` (stereo not shown) [Example 219], the 50% inhibitory concentration (IC50) is less than 1000 nM.
